Experimental data from the supplement of paper PMC6045584.

How the values were obtained:
Assay in all cases: area under dose-response curve of surviving fraction (unscaled, Aref=0) (surviving fraction x log10(nM)); higher = more resistant
Conditions in all cases: exposure time: 5 days; dose range 0.5-1000 nM
VISMODEGIB = compound: CS(=O)(=O)c1ccc(C(=O)Nc2ccc(Cl)c(-c3ccccn3)c2)c(Cl)c1 [VISMODEGIB]
Method in brief: (§1)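 Tumour cell lines in 384-well plates were exposed to eight inhibitor concentrations, from 0.5 to 1000 nM, for five days, and viability was read by CellTiter-Glo luminescence in three screens per line. Signals were normalised to DMSO-only wells, and 3-parameter logistic regression in the drc R package fitted dose-response survival curves to the surviving fractions. Area under the curve is given as the unscaled activity area. That area is taken over log10 dose with Aref = 0.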

NUTLIN3 = compound: COc1ccc(C2=N[C@@H](c3ccc(Cl)cc3)[C@@H](c3ccc(Cl)cc3)N2C(=O)N2CCNC(=O)C2)c(OC(C)C)c1 [NUTLIN3]
Method in brief: as §1

DECITABINE = compound: Nc1ncn([C@H]2C[C@H](O)[C@@H](CO)O2)c(=O)n1 [DECITABINE]
Method in brief: as §1

[1] = compound: CCN(CC)CCCCNc1ncc2cc(-c3cc(OC)cc(OC)c3)c(NC(=O)NC(C)(C)C)nc2n1
Method in brief: as §1

FLAVOPIRIDOL = compound: CN1CC[C@H](c2c(O)cc(O)c3c(=O)cc(-c4ccccc4Cl)oc23)[C@H](O)C1 [FLAVOPIRIDOL]
Method in brief: as §1

LAPATINIB = compound: CS(=O)(=O)CCNCc1ccc(-c2ccc3ncnc(Nc4ccc(OCc5cccc(F)c5)c(Cl)c4)c3c2)o1 [LAPATINIB]
Method in brief: as §1

2-METHOXYESTRADIOL = compound: COc1cc2c(cc1O)CC[C@@H]1[C@@H]2CC[C@]2(C)[C@@H](O)CC[C@@H]12 [2-METHOXYESTRADIOL]
Method in brief: as §1

FLUOROURACIL = compound: O=c1[nH]cc(F)c(=O)[nH]1 [FLUOROURACIL]
Method in brief: as §1

ABT-737 = compound: CN(C)CC[C@H](CSc1ccccc1)Nc1ccc(S(=O)(=O)NC(=O)c2ccc(N3CCN(Cc4ccccc4-c4ccc(Cl)cc4)CC3)cc2)cc1[N+](=O)[O-] [ABT-737]
Method in brief: as §1

SALINOMYCIN = compound: CC[C@@H](C(=O)[C@@H](C)[C@@H](O)[C@H](C)[C@@H]1O[C@@H]([C@@H](CC)C(=O)O)CC[C@@H]1C)[C@H]1O[C@]2(C=C[C@@H](O)[C@]3(CC[C@@](C)([C@H]4CC[C@](O)(CC)[C@H](C)O4)O3)O2)[C@H](C)C[C@@H]1C [SALINOMYCIN]
Method in brief: as §1

17-AAG = compound: C=CCNC1=C2C[C@@H](C)C[C@H](OC)[C@H](O)[C@@H](C)/C=C(\C)[C@H](OC(N)=O)[C@@H](OC)/C=C\C=C(/C)C(=O)NC(=CC1=O)C2=O [17-AAG]
Method in brief: as §1

RESVERATROL = compound: Oc1ccc(/C=C/c2cc(O)cc(O)c2)cc1 [RESVERATROL]
Method in brief: as §1

DOXORUBICIN = compound: COc1cccc2c1C(=O)c1c(O)c3c(c(O)c1C2=O)C[C@@](O)(C(=O)CO)C[C@@H]3O[C@H]1C[C@H](N)[C@H](O)[C@H](C)O1 [DOXORUBICIN]
Method in brief: as §1

## KPD BONE
VISMODEGIB
  area under dose-response curve: 3.27
NUTLIN3
  area under dose-response curve: 3.29
DECITABINE
  area under dose-response curve: 2.08
[1]
  area under dose-response curve: 3.24
FLAVOPIRIDOL
  area under dose-response curve: 2.05
LAPATINIB
  area under dose-response curve: 3.44
2-METHOXYESTRADIOL
  area under dose-response curve: 3.16
FLUOROURACIL
  area under dose-response curve: 3.27
ABT-737
  area under dose-response curve: 3.2
SALINOMYCIN
  area under dose-response curve: 2.62
17-AAG
  area under dose-response curve: 1.75
RESVERATROL
  area under dose-response curve: 3.44
DOXORUBICIN
  area under dose-response curve: 1.78

## LM7 BONE
VISMODEGIB
  area under dose-response curve: 3.28
NUTLIN3
  area under dose-response curve: 3.39
DECITABINE
  area under dose-response curve: 3.06
[1]
  area under dose-response curve: 3.22
FLAVOPIRIDOL
  area under dose-response curve: 2.3
LAPATINIB
  area under dose-response curve: 3.39
2-METHOXYESTRADIOL
  area under dose-response curve: 3.02
FLUOROURACIL
  area under dose-response curve: 2.96
ABT-737
  area under dose-response curve: 3.48
SALINOMYCIN
  area under dose-response curve: 3.08
17-AAG
  area under dose-response curve: 1.46
RESVERATROL
  area under dose-response curve: 3.63
DOXORUBICIN
  area under dose-response curve: 1.78

## MCF7 BREAST
VISMODEGIB
  area under dose-response curve: 2.99
NUTLIN3
  area under dose-response curve: 2.87
DECITABINE
  area under dose-response curve: 2.83
[1]
  area under dose-response curve: 2.89
FLAVOPIRIDOL
  area under dose-response curve: 2.18
LAPATINIB
  area under dose-response curve: 3.11
2-METHOXYESTRADIOL
  area under dose-response curve: 2.89
FLUOROURACIL
  area under dose-response curve: 2.99
ABT-737
  area under dose-response curve: 3.27
SALINOMYCIN
  area under dose-response curve: 2.78
17-AAG
  area under dose-response curve: 1.92
RESVERATROL
  area under dose-response curve: 3.21
DOXORUBICIN
  area under dose-response curve: 1.99

## MDAMB134 BREAST
VISMODEGIB
  area under dose-response curve: 2.56
NUTLIN3
  area under dose-response curve: 3.16
DECITABINE
  area under dose-response curve: 3.67
[1]
  area under dose-response curve: 2.92
FLAVOPIRIDOL
  area under dose-response curve: 2.96
LAPATINIB
  area under dose-response curve: 3.79
2-METHOXYESTRADIOL
  area under dose-response curve: 2.73
FLUOROURACIL
  area under dose-response curve: 2.74
ABT-737
  area under dose-response curve: 3.13
SALINOMYCIN
  area under dose-response curve: 3.52
17-AAG
  area under dose-response curve: 1.91
RESVERATROL
  area under dose-response curve: 3.44
DOXORUBICIN
  area under dose-response curve: 2.35

## MDAMB231 BREAST
VISMODEGIB
  area under dose-response curve: 3.04
NUTLIN3
  area under dose-response curve: 3.31
DECITABINE
  area under dose-response curve: 3.17
[1]
  area under dose-response curve: 3.28
FLAVOPIRIDOL
  area under dose-response curve: 2.26
LAPATINIB
  area under dose-response curve: 3.27
2-METHOXYESTRADIOL
  area under dose-response curve: 3
FLUOROURACIL
  area under dose-response curve: 3.13
ABT-737
  area under dose-response curve: 3.28
SALINOMYCIN
  area under dose-response curve: 2.97
17-AAG
  area under dose-response curve: 2.14
RESVERATROL
  area under dose-response curve: 3.26
DOXORUBICIN
  area under dose-response curve: 2.1

## MDAMB361 BREAST
VISMODEGIB
  area under dose-response curve: 2.31
NUTLIN3
  area under dose-response curve: 2.83
DECITABINE
  area under dose-response curve: 3.03
[1]
  area under dose-response curve: 2.94
FLAVOPIRIDOL
  area under dose-response curve: 2.59
LAPATINIB
  area under dose-response curve: 2.68
2-METHOXYESTRADIOL
  area under dose-response curve: 2.61
FLUOROURACIL
  area under dose-response curve: 2.28
ABT-737
  area under dose-response curve: 2.84
SALINOMYCIN
  area under dose-response curve: 2.72
17-AAG
  area under dose-response curve: 1.34
RESVERATROL
  area under dose-response curve: 2.99
DOXORUBICIN
  area under dose-response curve: 2.58

## MDAMB436 BREAST
VISMODEGIB
  area under dose-response curve: 2.81
NUTLIN3
  area under dose-response curve: 2.99
DECITABINE
  area under dose-response curve: 3.1
[1]
  area under dose-response curve: 2.96
FLAVOPIRIDOL
  area under dose-response curve: 2.13
LAPATINIB
  area under dose-response curve: 3.11
2-METHOXYESTRADIOL
  area under dose-response curve: 3.01
FLUOROURACIL
  area under dose-response curve: 2.81
ABT-737
  area under dose-response curve: 3.13
SALINOMYCIN
  area under dose-response curve: 1.74
17-AAG
  area under dose-response curve: 1.77
RESVERATROL
  area under dose-response curve: 3.36
DOXORUBICIN
  area under dose-response curve: 2.04

## MFM223 BREAST
VISMODEGIB
  area under dose-response curve: 3.12
NUTLIN3
  area under dose-response curve: 3.57
DECITABINE
  area under dose-response curve: 3.65
[1]
  area under dose-response curve: 2
FLAVOPIRIDOL
  area under dose-response curve: 2.3
LAPATINIB
  area under dose-response curve: 3.48
2-METHOXYESTRADIOL
  area under dose-response curve: 3.08
FLUOROURACIL
  area under dose-response curve: 2.92
ABT-737
  area under dose-response curve: 4.23
SALINOMYCIN
  area under dose-response curve: 2.35
17-AAG
  area under dose-response curve: 1.07
RESVERATROL
  area under dose-response curve: 3.94
DOXORUBICIN
  area under dose-response curve: 2

## MG63 BONE
VISMODEGIB
  area under dose-response curve: 3.19
NUTLIN3
  area under dose-response curve: 3.4
DECITABINE
  area under dose-response curve: 1.88
[1]
  area under dose-response curve: 2.88
FLAVOPIRIDOL
  area under dose-response curve: 2.39
LAPATINIB
  area under dose-response curve: 3.5
2-METHOXYESTRADIOL
  area under dose-response curve: 3.27
FLUOROURACIL
  area under dose-response curve: 3.26
ABT-737
  area under dose-response curve: 3.59
SALINOMYCIN
  area under dose-response curve: 2.67
17-AAG
  area under dose-response curve: 2.62
RESVERATROL
  area under dose-response curve: 3.52
DOXORUBICIN
  area under dose-response curve: 1.9

## MHM BONE
VISMODEGIB
  area under dose-response curve: 3.42
NUTLIN3
  area under dose-response curve: 3.28
DECITABINE
  area under dose-response curve: 3.4
[1]
  area under dose-response curve: 3.05
FLAVOPIRIDOL
  area under dose-response curve: 2.77
LAPATINIB
  area under dose-response curve: 3.38
2-METHOXYESTRADIOL
  area under dose-response curve: 3.26
FLUOROURACIL
  area under dose-response curve: 3.46
ABT-737
  area under dose-response curve: 3.61
SALINOMYCIN
  area under dose-response curve: 3.24
17-AAG
  area under dose-response curve: 2.77
RESVERATROL
  area under dose-response curve: 3.41
DOXORUBICIN
  area under dose-response curve: 2.66

## PCI30 HEADNECK
VISMODEGIB
  area under dose-response curve: 3.04
NUTLIN3
  area under dose-response curve: 3.44
DECITABINE
  area under dose-response curve: 3.24
[1]
  area under dose-response curve: 3.28
FLAVOPIRIDOL
  area under dose-response curve: 2.11
LAPATINIB
  area under dose-response curve: 3.52
2-METHOXYESTRADIOL
  area under dose-response curve: 2.94
FLUOROURACIL
  area under dose-response curve: 3.3
ABT-737
  area under dose-response curve: 3.56
SALINOMYCIN
  area under dose-response curve: 2.49
17-AAG
  area under dose-response curve: 1.97
RESVERATROL
  area under dose-response curve: 3.54
DOXORUBICIN
  area under dose-response curve: 2.03

## SKBR3 BREAST
VISMODEGIB
  area under dose-response curve: 3.07
NUTLIN3
  area under dose-response curve: 2.96
DECITABINE
  area under dose-response curve: 3.29
[1]
  area under dose-response curve: 3.1
FLAVOPIRIDOL
  area under dose-response curve: 2.07
LAPATINIB
  area under dose-response curve: 2.38
2-METHOXYESTRADIOL
  area under dose-response curve: 3.2
FLUOROURACIL
  area under dose-response curve: 2.95
ABT-737
  area under dose-response curve: 3.52
SALINOMYCIN
  area under dose-response curve: 2.84
17-AAG
  area under dose-response curve: 1.25
RESVERATROL
  area under dose-response curve: 3.5
DOXORUBICIN
  area under dose-response curve: 1.72

## SYO1 SYNOVIAL
VISMODEGIB
  area under dose-response curve: 3
NUTLIN3
  area under dose-response curve: 2.9
DECITABINE
  area under dose-response curve: 2.46
[1]
  area under dose-response curve: 2.51
FLAVOPIRIDOL
  area under dose-response curve: 1.9
LAPATINIB
  area under dose-response curve: 3.2
2-METHOXYESTRADIOL
  area under dose-response curve: 2.75
FLUOROURACIL
  area under dose-response curve: 2.82
ABT-737
  area under dose-response curve: 3
SALINOMYCIN
  area under dose-response curve: 2.04
17-AAG
  area under dose-response curve: 1.74
RESVERATROL
  area under dose-response curve: 3.23
DOXORUBICIN
  area under dose-response curve: 0.851

## T47D BREAST
VISMODEGIB
  area under dose-response curve: 3.3
NUTLIN3
  area under dose-response curve: 3.35
DECITABINE
  area under dose-response curve: 3.53
[1]
  area under dose-response curve: 3.36
FLAVOPIRIDOL
  area under dose-response curve: 2.51
LAPATINIB
  area under dose-response curve: 3.39
2-METHOXYESTRADIOL
  area under dose-response curve: 3.15
FLUOROURACIL
  area under dose-response curve: 3.16
ABT-737
  area under dose-response curve: 3.61
SALINOMYCIN
  area under dose-response curve: 3.3
17-AAG
  area under dose-response curve: 2.74
RESVERATROL
  area under dose-response curve: 3.51
DOXORUBICIN
  area under dose-response curve: 2.13
